Columns and labels:
Type in all cases: in vivo
[1] = system: redroot pigweed (Amaranthus retroflexus, AMARE); assay: Pre-emerge test, greenhouse herbicide activity screening; conditions: pre-emerge, 14 days after application, rating scale 0-100
In short: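 Plants grown in 10 cm pots of sandy loam mix received acetone-dissolved compounds through a moving flat-fan nozzle. Doses ranged from 15 to 1000 g ai/ha. Pre-emerge pots were seeded one day earlier, post-emerge pots 8–21 days earlier. Fourteen days on, each pot was graded 0–100 for damage.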

[2] = system: barnyardgrass (Echinochloa crus-galli, ECHCG); assay: as above; conditions: pre-emerge, 14 days after application, rating scale 0-100
In short: (§1)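 Compounds in acetone were track-sprayed at 187 l/ha, 15–1000 g ai/ha, onto sandy loam pots. Pre-emerge seeds were sown one day before spraying, with surface watering afterwards. Post-emerge plants were at the 2–3 leaf stage and sprayed with 0.25% v/v non-ionic surfactant. Injury was rated 0–100 at 14 days.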

[3] = system: green foxtail (Setaria viridis, SETVI); assay: as above; conditions: pre-emerge, 14 days after application, rating scale 0-100
In short: as §1

[4] = system: ivyleaf morningglory (Ipomoea hederacea, IPOHE); assay: as above; conditions: pre-emerge, 14 days after application, rating scale 0-100
In short: as §1

[5] = system: johnsongrass (Sorghum halepense, SORHA); assay: as above; conditions: pre-emerge, 14 days after application, rating scale 0-100
In short: as §1

[6] = system: lambsquarters (Chenopodium album, CHEAL); assay: as above; conditions: pre-emerge, 14 days after application, rating scale 0-100
In short: as §1

[7] = system: large crabgrass (Digitaria sanguinalis, DIGSA); assay: as above; conditions: pre-emerge, 14 days after application, rating scale 0-100
In short: as §1

[8] = system: sicklepod (Cassia obtusifolia, CASOB); assay: as above; conditions: pre-emerge, 14 days after application, rating scale 0-100
In short: as §1

[9] = system: velvetleaf (Abutilon theophrasti, ABUTH); assay: as above; conditions: pre-emerge, 14 days after application, rating scale 0-100
In short: as §1

[10] = system: field corn (Zea mays L., var. Dekalb 535, CORN); assay: Pre-emerge test, crop safety; conditions: pre-emerge, 14 days after application, rating scale 0-100
In short: (§2)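 Fourteen days after spraying, crop and weed injury was graded visually from 0, no effect, to 100, every plant dead. Test substances were dissolved in acetone and applied at 15–1000 g ai/ha with a flat-fan nozzle. Application was either pre-emergence, one day after sowing, or post-emergence at the 2–3 leaf stage.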

[11] = system: upland rice (Oryza sp., var. Tebonnet, RICE); assay: Pre-emerge test, crop safety; conditions: pre-emerge, 14 days after application, rating scale 0-100
In short: as §2

[12] = system: barnyardgrass (Echinochloa crus-galli, ECHCG); assay: Post-emerge test, greenhouse herbicide activity screening; conditions: rating scale 0-100 (0 no damage, 100 complete death), 14 days after application
In short: as §2

[13] = system: green foxtail (Setaria viridis, SETVI); assay: as above; conditions: rating scale 0-100 (0 no damage, 100 complete death), 14 days after application
In short: as §2

[14] = system: ivyleaf morningglory (Ipomoea hederacea, IPOHE); assay: as above; conditions: rating scale 0-100 (0 no damage, 100 complete death), 14 days after application
In short: as §2

[15] = system: johnsongrass (Sorghum halepense, SORHA); assay: as above; conditions: rating scale 0-100 (0 no damage, 100 complete death), 14 days after application
In short: as §2

[16] = system: large crabgrass (Digitaria sanguinalis, DIGSA); assay: as above; conditions: rating scale 0-100 (0 no damage, 100 complete death), 14 days after application
In short: as §2

[17] = system: redroot pigweed (Amaranthus retroflexus, AMARE); assay: as above; conditions: rating scale 0-100 (0 no damage, 100 complete death), 14 days after application
In short: as §2

[18] = system: sicklepod (Cassia obtusifolia, CASOB); assay: as above; conditions: rating scale 0-100 (0 no damage, 100 complete death), 14 days after application
In short: as §2

[19] = system: velvetleaf (Abutilon theophrasti, ABUTH); assay: as above; conditions: rating scale 0-100 (0 no damage, 100 complete death), 14 days after application
In short: as §2

[20] = system: field corn (Zea mays L., var. Dekalb 535, CORN); assay: Post-emerge test, crop safety; conditions: rating scale 0-100 (0 no damage, 100 complete death), 14 days after application
In short: as §1

[21] = system: upland rice (Oryza sp., var. Tebonnet, RICE); assay: Post-emerge test, crop safety; conditions: rating scale 0-100 (0 no damage, 100 complete death), 14 days after application
In short: as §1

Compound: CCOC(=O)C(Cl)Cc1cc(Cl)cc(F)c1-n1nc(C)n(C(F)F)c1=O (stereo not drawn) [14-52]
- phytotoxicity rating AMARE ([1]; 63 g ai/ha): 40
- phytotoxicity rating AMARE ([1]; 250 g ai/ha): 90
- phytotoxicity rating ECHCG ([2]; 63 g ai/ha): 0
- phytotoxicity rating ECHCG ([2]; 250 g ai/ha): 0
- phytotoxicity rating SETVI ([3]; 63 g ai/ha): 0
- phytotoxicity rating SETVI ([3]; 250 g ai/ha): 0
- phytotoxicity rating IPOHE ([4]; 63 g ai/ha): 0
- phytotoxicity rating IPOHE ([4]; 250 g ai/ha): 30
- phytotoxicity rating SORHA ([5]; 63 g ai/ha): 0
- phytotoxicity rating SORHA ([5]; 250 g ai/ha): 0
- phytotoxicity rating CHEAL ([6]; 63 g ai/ha): 80
- phytotoxicity rating CHEAL ([6]; 250 g ai/ha): 100
- phytotoxicity rating DIGSA ([7]; 63 g ai/ha): 0
- phytotoxicity rating DIGSA ([7]; 250 g ai/ha): 0
- phytotoxicity rating CASOB ([8]; 63 g ai/ha): 0
- phytotoxicity rating CASOB ([8]; 250 g ai/ha): 0
- phytotoxicity rating ABUTH ([9]; 63 g ai/ha): 70
- phytotoxicity rating ABUTH ([9]; 250 g ai/ha): 100
- phytotoxicity rating CORN ([10]; 63 g ai/ha): 0
- phytotoxicity rating CORN ([10]; 250 g ai/ha): 0
- phytotoxicity rating RICE ([11]; 63 g ai/ha): 0
- phytotoxicity rating RICE ([11]; 250 g ai/ha): 0
- Post-emerge Herbicidal Activity, phytotoxicity rating ECHCG ([12]; Rate 63 g ai/ha): 0
- Post-emerge Herbicidal Activity, phytotoxicity rating ECHCG ([12]; Rate 250 g ai/ha): 10
- Post-emerge Herbicidal Activity, phytotoxicity rating SETVI ([13]; Rate 63 g ai/ha): 0
- Post-emerge Herbicidal Activity, phytotoxicity rating SETVI ([13]; Rate 250 g ai/ha): 0
- Post-emerge Herbicidal Activity, phytotoxicity rating IPOHE ([14]; Rate 63 g ai/ha): 100
- Post-emerge Herbicidal Activity, phytotoxicity rating IPOHE ([14]; Rate 250 g ai/ha): 100
- Post-emerge Herbicidal Activity, phytotoxicity rating SORHA ([15]; Rate 63 g ai/ha): 0
- Post-emerge Herbicidal Activity, phytotoxicity rating SORHA ([15]; Rate 250 g ai/ha): 0
- Post-emerge Herbicidal Activity, phytotoxicity rating DIGSA ([16]; Rate 63 g ai/ha): 0
- Post-emerge Herbicidal Activity, phytotoxicity rating DIGSA ([16]; Rate 250 g ai/ha): 0
- Post-emerge Herbicidal Activity, phytotoxicity rating AMARE ([17]; Rate 63 g ai/ha): 20
- Post-emerge Herbicidal Activity, phytotoxicity rating AMARE ([17]; Rate 250 g ai/ha): 50
- Post-emerge Herbicidal Activity, phytotoxicity rating CASOB ([18]; Rate 63 g ai/ha): 0
- Post-emerge Herbicidal Activity, phytotoxicity rating CASOB ([18]; Rate 250 g ai/ha): 70
- Post-emerge Herbicidal Activity, phytotoxicity rating ABUTH ([19]; Rate 63 g ai/ha): 90
- Post-emerge Herbicidal Activity, phytotoxicity rating ABUTH ([19]; Rate 250 g ai/ha): 100
- Post-emerge phytotoxicity rating CORN (crop damage) ([20]; Rate 63 g ai/ha): 0
- Post-emerge phytotoxicity rating CORN (crop damage) ([20]; Rate 250 g ai/ha): 10
- Post-emerge phytotoxicity rating RICE (crop damage) ([21]; Rate 63 g ai/ha): 0
- Post-emerge phytotoxicity rating RICE (crop damage) ([21]; Rate 250 g ai/ha): 0

Source: patent US6355799B1, “Substituted benzene compounds, process for their preparation, and herbicidal and defoliant compositions containing them” (ISK Americas Incorporated, priority 1997, dated 2002)
